Columns and labels:
[1] = tested on: Plasmodium falciparum; assay: Antiplasmodial activity against Plasmodium falciparum 3D7 […] after 72 hrs by NBT dye based LDH assay; type: functional, organism-based; settings: 3D7, 72 h
[2] = tested on: HeLa; assay: Cytotoxicity against human HeLa cells after 72 hrs by MTT assay; type: cell-based

| Structure (SMILES) | IC50 [1] [µM] | IC50 [2] [µM] |
| --- | --- | --- |
| CC[C@H](C)[C@H](NC(=O)[C@H](CC(C)C)N(C)C(=O)CCCCCNC(=O)CCCc1ccc(O)cc1)C(=O)N(C)[C@@H](C(=O)N[C@@H](CCC(N)=O)C(=O)N[C@H](C(=O)N(C)[C@H](Cc1ccccc1)C(=O)N1CCC[C@H]1C(=O)OC)C(C)C)C(C)C | 0.52 | 14 |
| CC[C@H](C)[C@H](NC(=O)[C@H](CC(C)C)N(C)C(=O)CCCCCCCCNC(=O)CCCc1ccc(O)cc1)C(=O)N(C)[C@@H](C(=O)N[C@@H](CCC(N)=O)C(=O)N1CCC[C@H]1C(=O)N(C)[C@@H](Cc1ccccc1)C(=O)N1CCC[C@H]1C(=O)OC)C(C)C | 1 | 29 |
